{"source": "patent US20250099455A1", "about": "“TREATMENT FOR CONGESTIVE HEART FAILURE” (FibroGen, Inc., priority 2022, published 2025)", "tested_on": "myocardial ischemia-induced heart failure (HFrEF)", "assay": "Rat model of ischemic HFrEF, Formula I and empagliflozin alone and in combination", "format": "in vivo", "protocol": "• Male Sprague Dawley rats • Ligation of left coronary artery for 30 minutes followed by reperfusion • Post-ligation recovery for 28 days • Cardiac function 28 days after ischemia-reperfusion using a Millar pressure-volume catheter inserted in the left ventricle via the carotid artery • Record pressure-volume loops over several cardiac cycles and derived cardiac function parameters A) Rat Model of Ischemic Heart Failure with Reduced Ejection Fraction (HFrEF)"}
{"smiles": "OC[C@H]1O[C@@H](c2ccc(Cl)c(Cc3ccc(O[C@H]4CCOC4)cc3)c2)[C@H](O)[C@@H](O)[C@@H]1O", "note": "[empagliflozin, reference compound]", "values": [{"measurement": "improvement in ejection fraction", "value": "~30", "unit": "%"}, {"measurement": "improvement in end systolic volume", "value": "~30", "unit": "%"}]}
